Data: article PMC8624485, “Modeling, Synthesis, and Biological Evaluation of Potential Retinoid-X-Receptor (RXR) Selective Agonists: Analogs of 4-[1-(3,5,5,8,8-Pentamethyl-5,6,7,8-tetrahyro-2-naphthyl)ethynyl]benzoic Acid (Bexarotene) and 6-(Ethyl(4-isobutoxy-3-isopropylphenyl)amino)nicotinic Acid (NEt-4IB)” (International Journal of Molecular Sciences, 2021)

Legend:
Assay type in all cases: cell-based
Saccharomyces cerevisiae = Saccharomyces cerevisiae toxicity assay; conditions: 3 h incubation, colony count vs DMSO only control; highest concentration tested 11 µg/µL
Protocol: These compounds were also assessed for mutagenicity and toxicity in Saccharomyces cerevisiae and the toxicity results are summarized in Table 1. No compound was mutagenic in this assay.
All compounds were tested for toxicity and mutagenicity using a Saccharomyces cerevisiae based assay as described previously. Toxicity was assessed in this assay (Table 1), comparing growth on plates to control treatments. Compounds were solubilized in DMSO at increasing concentrations and cells were incubated with the compounds for 3 h before plating on selective media or YPD to assess toxicity and mutagenicity. Cytotoxicity was assessed as described. Growth of colonies on the full nutrient YPD plate for each treatment was compared to the DMSO only control. The concentration at which 50% cell death (as indicated by colony count compared to DMSO only control) +/−10% cell death is reported as the 50% killing rate. The highest concentration tested was 11 µg/µL.

human RARα = target: T1, human RARα (Homo sapiens, UniProt P10276); assay: RARE-luciferase reporter assay in HEK293 cells; conditions: HEK293, all-trans-RA set to 100%
T1 construct: expressed in transfected cells; host or cells: HEK293 cells
T1 sequence (P10276 1-462): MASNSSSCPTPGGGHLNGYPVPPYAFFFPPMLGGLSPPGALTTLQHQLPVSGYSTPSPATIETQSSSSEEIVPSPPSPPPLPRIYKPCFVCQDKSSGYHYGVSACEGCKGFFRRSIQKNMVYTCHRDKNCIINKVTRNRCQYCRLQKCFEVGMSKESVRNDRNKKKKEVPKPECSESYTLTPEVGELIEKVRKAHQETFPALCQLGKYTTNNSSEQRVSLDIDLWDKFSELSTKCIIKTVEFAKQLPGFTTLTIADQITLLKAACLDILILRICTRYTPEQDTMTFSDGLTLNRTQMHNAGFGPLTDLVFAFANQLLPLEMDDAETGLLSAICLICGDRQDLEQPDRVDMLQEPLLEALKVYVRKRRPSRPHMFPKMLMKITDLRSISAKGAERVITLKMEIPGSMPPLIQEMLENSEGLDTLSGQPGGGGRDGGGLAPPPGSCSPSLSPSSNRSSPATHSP
Protocol: Human embryonic kidney cells (HEK293) were plated at 60,000 cells per well in a 24-well plate and maintained as described above. After 24 h, the cells were transfected with 250 ng pTK-DR5(X2)-Luc, 25 ng pCMX-human RARα, and 20 ng renilla utilizing 1.25 µL polyethylenimine (PEI) per well for 24 h. The sequence of the double DR5 RARE is: 5′-[…]-3′ (DR5 responsive elements underlined). The cells were treated with ethanol vehicle (0.1%), all-trans-retinoic acid (RA, the ligand for RAR), or the indicated rexinoid at a final concentration of 10 nM. After 24 h of treatment, the retinoid activity was measured as described above (dual luciferase assay). […] Three independent assays were conducted with triplicate samples for each treatment group. The value for RA was set to 100%. […]

RXRα = target: T2, RXRα (Homo sapiens, UniProt P19793); assay: UAS/Gal4 GFP reporter assay of RXRα activation in UAS-GFP x KMT2A-MLLT3 cells; conditions: RXRα activation; value (SD); Table 1 does not say whether GFP or Luc assay; read-out: EC50 (nM) +/−(SD)
T2 construct: expressed in transfected cells; host or cells: UAS-GFP x KMT2A-MLLT3 cells (retroviral transduction)
T2 sequence (P19793 227-458 limits assumed): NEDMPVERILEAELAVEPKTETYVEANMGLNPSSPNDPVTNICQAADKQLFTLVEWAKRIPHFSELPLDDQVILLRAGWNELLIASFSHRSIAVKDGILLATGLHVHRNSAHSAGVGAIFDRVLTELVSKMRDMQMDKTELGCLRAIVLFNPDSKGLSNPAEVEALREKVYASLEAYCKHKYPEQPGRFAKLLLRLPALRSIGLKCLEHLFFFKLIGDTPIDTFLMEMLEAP
Protocol: Cells were treated, and after 48 h, GFP measured by a ZE5 Flow Cytometer (Biorad).

[1] = target: T3, RXR-LXR heterodimer (LXR/LXRE) (Homo sapiens, UniProt P19793); assay: LXRE-luciferase transactivation assay in HEK293 cells; conditions: 100 nM compound alone, HEK293, bexarotene (1) set to 100%
T3 construct: expressed in transfected cells; host or cells: HEK293 cells
T3 sequence (P19793 1-462): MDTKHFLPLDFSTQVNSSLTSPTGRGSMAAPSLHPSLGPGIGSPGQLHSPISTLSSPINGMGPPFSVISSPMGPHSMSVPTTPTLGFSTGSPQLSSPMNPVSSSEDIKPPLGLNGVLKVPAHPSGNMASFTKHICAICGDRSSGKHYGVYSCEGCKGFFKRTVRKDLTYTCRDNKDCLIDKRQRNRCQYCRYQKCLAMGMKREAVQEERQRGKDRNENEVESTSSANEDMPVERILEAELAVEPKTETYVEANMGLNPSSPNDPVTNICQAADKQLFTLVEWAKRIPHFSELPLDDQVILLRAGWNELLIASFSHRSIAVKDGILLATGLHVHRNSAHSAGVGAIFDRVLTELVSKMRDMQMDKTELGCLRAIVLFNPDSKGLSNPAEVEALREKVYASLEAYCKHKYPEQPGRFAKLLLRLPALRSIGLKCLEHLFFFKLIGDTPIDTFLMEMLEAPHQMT
T3 sequence (Q13133 1-447 partner): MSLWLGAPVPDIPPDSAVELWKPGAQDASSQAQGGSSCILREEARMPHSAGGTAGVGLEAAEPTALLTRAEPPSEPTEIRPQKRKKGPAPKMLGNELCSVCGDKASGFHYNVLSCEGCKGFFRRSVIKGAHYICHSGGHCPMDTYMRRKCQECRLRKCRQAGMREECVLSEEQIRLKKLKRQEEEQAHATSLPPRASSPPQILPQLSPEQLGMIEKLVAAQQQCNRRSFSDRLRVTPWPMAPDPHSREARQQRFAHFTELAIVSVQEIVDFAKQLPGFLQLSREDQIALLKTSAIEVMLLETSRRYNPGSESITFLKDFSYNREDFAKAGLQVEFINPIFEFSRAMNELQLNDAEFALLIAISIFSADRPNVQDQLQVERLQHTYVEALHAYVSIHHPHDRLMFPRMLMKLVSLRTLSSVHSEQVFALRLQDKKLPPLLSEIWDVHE
Protocol: The activation from this natural LXRE in our system was tested in the presence of either 100 nM RXR agonists alone or in combination with 100 nM of both the RXR agonist and LXR agonist T0901317 (TO). […] The LXRE-mediated assays were performed using human embryonic cells (HEK293) seeded at a density of 60,000 cells/well in a 24-well plate and maintained in DMEM (Hyclone) supplemented with 10% fetal bovine serum, 100 µg/mL streptomycin, 100 U/mL penicillin (Invitrogen, Carlsbad, CA, USA) at 37 degrees Celsius, 5% CO2 for 24 h. The cells were co-transfected with 250 ng of an LXRE-luciferase reporter gene, 50 ng of pSG5-human RXRα, and 20 ng of renilla control plasmid. […] After 24 h post treatment, the cells were lysed and the transcriptional activity mediated by the LXRE was measured using the Dual Luciferase Assay System (Promega, Madison, WI) in a Sirius FB12 luminometer (Berthold Detection Systems, Pforzheim, Germany) according to the manufacturer’s protocol. The data are a compilation of between three and six independent assays with each treatment group dosed in triplicate for each independent assay. […] Bars on all graphs indicate standard deviation of the replicate experiments.
Cells were transfected for 24 h utilizing a liposome-mediated transfection protocol and then treated with the ethanol vehicle, or 100 nM of the indicated compound alone or in combination with 100 nM TO901317 (TO). […] (A) Human HEK-293 cells were transfected and treated as described in Figure 8.

RXRA = target: T4, RXRA (Homo sapiens, UniProt P19793); assay: ApoA1-Luc luciferase assay in 293T cells with pBABE-RXRA; conditions: pBABE-RXRA and ApoA1-Luc, nonconverged, read-out: EC50 (nM), luciferase (Figure 7C)
T4 construct: expressed in transfected cells; host or cells: 293T cells
T4 sequence (P19793 1-462): T3 sequence (P19793 1-462)
Protocol: 293T cells were transfected using Lipofectamine 2000 (Invitrogen). Six hours after transfection, the cells were collected and plated into a 48-well plate in 1% BSA media in triplicate and treated with compounds. After 40 h incubation, the cells were harvested and assayed for luciferase (Luc Assay System with Reporter Lysis Buffer, Promega) in a Beckman Coulter LD400 plate reader.

Row | SMILES | Cyto-Toxicity (50% Cell Death) (Saccharomyces cerevisiae) | RARE Activity (%RA at 10 nM) (human RARα) | EC50 (RXRα) | LXRE Activity (% of Bex) [1] | EC50 (RXRA)
1 | CCN(c1ccc(C(=O)O)c(F)c1)c1ccc(OCC(C)C)c(C(C)C)c1 [Compound 29, 4-(ethyl(4-isobutoxy-3-isopropylphenyl)amino)-2-fluorobenzoic acid] | 1 µg/µL | 4.0 %RA | > 1000 nM | 61.7 % of Bex | > 1000 nM
2 | CC(C)COc1ccc(-n2nnc3cc(C(=O)O)ccc32)cc1C(C)C [Compound 31, 1-(4-isobutoxy-3-isopropylphenyl)-1H-benzo[d][1,2,3]triazole-5-carboxylic acid] | none | 3.1 %RA | > 1000 nM | 64.5 % of Bex | > 1000 nM
